Tests used:
[1] = molecular target: T1, human mGluR4 transiently over-expressed in HEK-293 cells (Homo sapiens, UniProt Q14833); test: Human mGluR4 positive allosteric modulator evaluation using Ca++ functional assay; format: cell-based; settings: HEK-293 cells co-transfected with hmGluR4 and chimeric G protein; EC10 glutamate; intracellular calcium (Fluo4AM); read-out: mean EC50 of agonist/positive allosteric modulator activity on mGluR4
T1 construct: expressed in transfected cells; host or cells: HEK-293 cells, transient co-transfection by electroporation
T1 sequence (Q14833 33-912): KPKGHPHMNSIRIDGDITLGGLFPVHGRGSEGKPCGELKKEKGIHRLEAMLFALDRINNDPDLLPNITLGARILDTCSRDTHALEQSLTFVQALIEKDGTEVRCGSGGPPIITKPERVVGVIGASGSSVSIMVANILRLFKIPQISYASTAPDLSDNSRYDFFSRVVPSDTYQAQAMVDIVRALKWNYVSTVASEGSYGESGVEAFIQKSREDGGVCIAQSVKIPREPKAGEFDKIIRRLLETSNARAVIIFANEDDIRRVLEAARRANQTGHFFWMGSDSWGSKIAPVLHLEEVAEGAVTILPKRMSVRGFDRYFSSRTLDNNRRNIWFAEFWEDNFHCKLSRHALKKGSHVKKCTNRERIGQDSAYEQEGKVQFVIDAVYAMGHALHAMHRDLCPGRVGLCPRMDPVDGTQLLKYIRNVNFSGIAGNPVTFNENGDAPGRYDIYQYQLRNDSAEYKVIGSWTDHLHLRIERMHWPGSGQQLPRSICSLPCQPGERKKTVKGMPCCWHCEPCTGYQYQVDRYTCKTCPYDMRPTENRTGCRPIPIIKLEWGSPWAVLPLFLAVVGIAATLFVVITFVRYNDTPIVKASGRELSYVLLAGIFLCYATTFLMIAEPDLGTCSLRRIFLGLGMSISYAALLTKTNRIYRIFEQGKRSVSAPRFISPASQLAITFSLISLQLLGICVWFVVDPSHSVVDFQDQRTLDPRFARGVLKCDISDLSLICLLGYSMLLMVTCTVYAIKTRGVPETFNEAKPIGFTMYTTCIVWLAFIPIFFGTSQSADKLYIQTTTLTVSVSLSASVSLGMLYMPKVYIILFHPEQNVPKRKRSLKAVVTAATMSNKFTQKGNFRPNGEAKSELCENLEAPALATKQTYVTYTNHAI
How it was run: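 HEK-293 cells transiently co-transfected with hmGluR4 and a chimeric G protein, loaded with Fluo4AM; Ca2+ fluorescence read 485/525 nm. Compound alone read 60 s, then EC10 glutamate added and read 60 s more. EC50 fitted from 6–9 concentrations, duplicate, two independent runs.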

| melting point | EC50 [1] [nM] | Compound |
| --- | --- | --- |
| > 255 °C (dec.) | < 5000 | Cl.ON=c1cc(-c2cc3cccn3cn2)oc2ccc(OCCN3CCCCC3)cc12 [Example 88, 6-(2-Piperidin-1-yl-ethoxy)-2-pyrrolo[1,2-c]pyrimidin-3-yl-chromen-4-one oxime, hydrochloride] |
| > 276 °C | < 1000 | ON=c1cc(-c2cn3cccc3cn2)oc2ccccc12 [Example 91, 2-Pyrrolo[1,2-a]pyrazin-3-yl-chromen-4-one oxime] |
| > 230 °C (dec.) | < 5000 | CN1CCN(CCOc2ccc3oc(-c4cc5cccn5cn4)cc(=NO)c3c2)CC1.Cl.Cl [Example 93, 6-[2-(4-methyl-piperazin-1-yl)-ethoxy]-2-pyrrolo[1,2-c]pyrimidin-3-yl-chromen-4-one oxime, dihydrochloride] |
| > 210 °C (dec.) | < 1000 | CN1CCCN(CCOc2ccc3oc(-c4cc5cccn5cn4)cc(=NO)c3c2)CC1.Cl.Cl [Example 94, 6-[2-(4-methyl-[1,4]diazepan-1-yl)-ethoxy]-2-pyrrolo[1,2-c]pyrimidin-3-yl-chromen-4-one oxime, dihydrochloride] |
| > 220 °C (dec.) | < 5000 | Cl.OC[C@@H]1CCCN1CCOc1ccc2oc(-c3cc4cccn4cn3)cc(=NO)c2c1 [Example 95, 6-[2-((S)-2-hydroxymethylpyrrolidin-1-yl)-ethoxy]-2-pyrrolo[1,2-c]pyrimidin-3-yl-chromen-4-one oxime, hydrochloride] |
| > 225 °C (dec.) | < 1000 | COC[C@@H]1CCCN1CCOc1ccc2oc(-c3cc4cccn4cn3)cc(=NO)c2c1.Cl [Example 96, 6-[2-((S)-2-methoxymethylpyrrolidin-1-yl)-ethoxy]-2-pyrrolo[1,2-c]pyrimidin-3-yl-chromen-4-one oxime, hydrochloride] |
| 210 °C (dec.) | < 1000 | COC[C@H]1CCCN1CCOc1ccc2oc(-c3cc4cccn4cn3)cc(=NO)c2c1.Cl [Example 97, 6-[2-((R)-2-methoxymethylpyrrolidin-1-yl)-ethoxy]-2-pyrrolo[1,2-c]pyrimidin-3-yl-chromen-4-one oxime, hydrochloride] |
| > 230 °C (dec.) | < 1000 | Cl.ON=c1cc(-c2cc3cccn3cn2)oc2ccc(OCCN3CCC(O)C3)cc12 (stereo not drawn) [Example 98, 6-[2-(3-hydroxy-pyrrolidin-1-yl)-ethoxy]-2-pyrrolo[1,2-c]pyrimidin-3-yl-chromen-4-one oxime, hydrochloride] |
| > 255 °C (dec.) | < 1000 | CN(C)C1CCN(CCOc2ccc3oc(-c4cc5cccn5cn4)cc(=NO)c3c2)CC1.Cl.Cl [Example 99, 6-[2-(4-dimethylamino-piperidin-1-yl)-ethoxy]-2-pyrrolo[1,2-c]pyrimidin-3-yl-chromen-4-one oxime, dihydrochloride] |
| > 220 °C (dec.) | < 1000 | Cl.ON=c1cc(-c2cc3cccn3cn2)oc2ccc(OCCCN3CCOCC3)cc12 [Example 101, 6-(3-morpholin-4-yl-propoxy)-2-pyrrolo[1,2-c]pyrimidin-3-yl-chromen-4-one oxime, hydrochloride] |
| 180 to 185 °C | < 1000 | Cl.ON=c1cc(-c2cc3cccn3cn2)oc2ccc(CCCCN3CCOCC3)cc12 [Example 102, 6-(4-morpholin-4-yl-butyl)-2-pyrrolo[1,2-c]pyrimidin-3-yl-chromen-4-one oxime, hydrochloride] |
| 155 to 160 °C | < 1000 | COCCN(CCOC)CCOc1ccc2oc(-c3cc4cccn4cn3)cc(=NO)c2c1.Cl [Example 104, 6-(2-[bis-(2-methoxy-ethyl)-amino]-ethoxy)-2-pyrrolo[1,2-c]pyrimidin-3-yl-chromen-4-one oxime, hydrochloride] |
| 178 to 184 °C | < 1000 | COC1CCCN(CCOc2ccc3oc(-c4cc5cccn5cn4)cc(=NO)c3c2)C1.Cl (stereo not drawn) [Example 108, 6-[2-(3-methoxy-piperidin-1-yl)-ethoxy]-2-pyrrolo[1,2-c]pyrimidin-3-yl-chromen-4-one oxime, hydrochloride] |
| 190 to 195 °C | < 1000 | Cl.ON=c1cc(-c2cc3cccn3cn2)oc2ccc(OCCN3CCCC(F)(F)C3)cc12 [Example 114, 6-[2-(3,3-difluoro-piperidin-1-yl)-ethoxy]-2-pyrrolo[1,2-c]pyrimidin-3-yl-chromen-4-one oxime, hydrochloride] |
| 230 to 235 °C | < 1000 | Cl.O=C(NCCN1CCOCC1)c1ccc2oc(-c3cc4cccn4cn3)cc(=NO)c2c1 [Example 115, 4-(hydroxyimino)-2-pyrrolo[1,2-c]pyrimidin-3-yl-4H-chromene-6-carboxylic acid (2-morpholin-4-yl-ethyl)-amide, hydrochloride] |
| > 235 °C (dec.) | < 1000 | Cl.Cl.ON=c1cc(-c2cc3cccn3cn2)oc2ccc(OCCN3CCC(N4CCCCC4)CC3)cc12 [Example 116, 6-(2-[1,4′]bipiperidinyl-1′-yl-ethoxy)-2-pyrrolo[1,2-c]pyrimidin-3-yl-chromen-4-one oxime, dihydrochloride] |
| 240 °C (dec.) | < 1000 | Cl.ON=c1cc(-c2cc3cccn3cn2)oc2ccc(OCCN3CCCOCC3)cc12 [Example 117, 6-(2-[1,4]oxazepan-4-yl-ethoxy)-2-pyrrolo[1,2-c]pyrimidin-3-yl-chromen-4-one oxime, hydrochloride] |
| > 210 °C (dec.) | < 1000 | Cl.Cl.ON=c1cc(-c2cc3cccn3cn2)oc2ccc(OCCN3CCC(N4CCCC4)CC3)cc12 [Example 118, 6-[2-(4-pyrrolidin-1-yl-piperidin-1-yl)-ethoxy]-2-pyrrolo[1,2-c]pyrimidin-3-yl-chromen-4-one oxime, dihydrochloride] |
| > 230 °C (dec.) | < 1000 | Cl.ON=c1cc(-c2cc3cccn3cn2)oc2ccc(OCCN3CCC(F)(F)C3)cc12 [Example 119, 6-[2-(3,3-difluoro-pyrrolidin-1-yl)-ethoxy]-2-pyrrolo[1,2-c]pyrimidin-3-yl-chromen-4-one oxime, hydrochloride] |
| > 250 °C (dec.) | < 1000 | Cl.ON=c1cc(-c2cn3cccc3cn2)oc2ccc(OCCN3CCOCC3)cc12 [Example 123, 6-(2-Morpholin-4-yl-ethoxy)-2-(8aH-pyrrolo[1,2-a]pyrazin-3-yl)-chromen-4-one oxime, hydrochloride] |
| 225 to 230 °C | < 1000 | Cl.ON=c1cc(-c2cn3cccc3cn2)oc2ccc(OCCN3CCC(F)(F)CC3)cc12 [Example 124, 6-[2-(4,4-Difluoro-piperidin-1-yl)-ethoxy]-2-pyrrolo[1,2-a]pyrazin-3-yl-chromen-4-one oxime, hydrochloride] |
| 238 to 240 °C | < 1000 | Cl.ON=c1cc(-c2cn3cccc3cn2)oc2ccc(OCCn3ccnc3)cc12 [Example 125, 6-(2-Imidazol-1-yl-ethoxy)-2-pyrrolo[1,2-a]pyrazin-3-yl-chromen-4-one oxime, hydrochloride] |
| 248 to 250 °C | < 1000 | ON=c1cc(-c2cn3cccc3cn2)oc2ccc(OCCc3ccc(F)cc3)cc12 [Example 126, 6-[2-(4-Fluoro-phenyl)-ethoxy]-2-pyrrolo[1,2-a]pyrazin-3-yl-chromen-4-one oxime] |
| > 230 °C (dec.) | < 1000 | Cl.ON=c1cc(-c2cc3sccc3cn2)oc2ccc(OCCN3CCOCC3)cc12 [Example 127, 6-(2-Morpholin-4-yl-ethoxy)-2-thieno[3,2-c]pyridin-6-yl-chromen-4-one oxime, hydrochloride] |
| 225 to 230 °C | < 1000 | Cl.ON=c1cc(-c2cc3sccc3cn2)oc2ccc(OCCN3CCC(F)(F)CC3)cc12 [Example 128, 6-[2-(4,4-Difluoro-piperidin-1-yl)-ethoxy]-2-thieno[3,2-c]pyridin-6-yl-chromen-4-one oxime, hydrochloride] |
| 218 to 220 °C | < 1000 | Cl.ON=c1cc(-c2cc3sccc3cn2)oc2ccc(OCCn3ccnc3)cc12 [Example 129, 6-(2-imidazol-1-yl-ethoxy)2-thieno[3,2-c]pyridin-6-yl-chromen-4-one oxime, hydrochloride] |
| > 250 °C (dec.) | < 1000 | Cl.ON=c1cc(-c2cc3sccc3cn2)oc2ccc(OCCN3CCCC(F)(F)C3)cc12 [Example 131, 6-[2-(3,3-Difluoro-piperidin-1-yl)-ethoxy]-2-thieno[3,2-c]pyridin-6-yl-chromen-4-one oxime, hydrochloride] |
| 222 to 225 °C | < 1000 | CC1CN(CCOc2ccc3oc(-c4cc5sccc5cn4)cc(=NO)c3c2)CC(C)O1.Cl (stereo not drawn) [Example 132, 6-[2-(2,6-Dimethyl-morpholin-4-yl)-ethoxy]-2-thieno[3,2-c]pyridin-6-yl-chromen-4-one oxime, hydrochloride] |
| 226 to 229 °C | < 1000 | Cl.ON=c1cc(-c2cc3sccc3cn2)oc2ccc(OCCN3CCC(F)(F)C3)cc12 [Example 133, 6-[2-(3,3-Difluoro-pyrrolidin-1-yl)-ethoxy]-2-thieno[3,2-c]pyridin-6-yl-chromen-4-one oxime, hydrochloride] |
| 236 to 238 °C | < 1000 | Cl.ON=c1cc(-c2cc3sccc3cn2)oc2ccc(OCCCc3ccncc3)cc12 [Example 134, 6-(3-Pyridin-4-yl-propoxy)-2-thieno[3,2-c]pyridin-6-yl-chromen-4-one oxime, hydrochloride] |

From US8962627B2, “Oxime derivatives and their use as allosteric modulators of metabotropic glutamate receptors” (Prestwick Chemical, Inc., priority 2009, dated 2015)
